Results published in US11167034B2, “Polymeric paste compositions for drug delivery” (The University of British Columbia, priority 2017, dated 2021).
Each block holds one molecule with its values, some of them ahead of it.

Assays:
[1] = single local injection, regional delivery of lidocaine; cited from earlier work
[2] = In vitro drug release assay from polymeric paste (RP-HPLC-UV); format: physicochemical; settings: for drug released by day 7: 8% w/w lidocaine; for drug released by day 50: PEG:PLGA 63:37 and PEG:PLGA:Diblock 50:37:13 pastes, 1% docetaxel, 4% enzalutamide, FIG. 12A, 12B
Method: The drug-loaded paste can be aliquoted for in vitro release studies. Paste (50-100 mg) is deposited at the bottom of a test tube and release medium is added (5-10 mL, sink conditions). Release medium is phosphate buffered saline (PBS, 10 mM, pH 7.4)) or PBS containing 1% Albumin. The test tubes are kept in a 37° C. incubator until the end of the study. Release samples are taken at appropriate time points by replacing the complete release medium (supernatant) and analyzing it for total drug using Reversed phase high-performance liquid chromatography with ultraviolet (UV) detection (RP-HPLC-UV).

[3] = Local delivery of lidocaine paste subcutaneously in rats, serum lidocaine; format: in vivo; settings: for maximum serum concentration: subcutaneous, rats
Method: (§1) Five groups of rats (male, Sprague Dawley™) with six animals in each group received one injection of paste formulation (0.1 mL) subcutaneously in their flank. The paste formulation was based on a 50:50 mixture of PEG 300™ and PLGA. Lidocaine was incorporated into the paste at 80, 100, 120, 140, and 160 mg per g of paste. The corresponding doses for each group were 23, 29, 36, 40 and 45 mg of Lidocaine per kg.
Blood was collected from the saphenous vein over four weeks at 0, 0.25, 1, 4, 24, 48, 168 336, 504 and 672 hours after injection. Lidocaine concentrations in rat serum were determined using ultra high performance liquid chromatography tandem mass spectrometry (UHPLC-MS/MS). A non-compartmental analysis was then applied to each data set using Phoenix 64™ (Build 6.3.0.395) WinNonlin 63™ to determine relevant pharmacokinetic parameters.
as §1, with “Sprague Dawley)” for “Sprague Dawley™)”, “of lidocaine” for “of Lidocaine”

[4] = Kidney pelvis injection of gemcitabine paste; format: in vivo, pigs; settings: 5% gemcitabine in sodium hyaluronate containing paste, pig kidney pelvis
Method: After placement of a ureteral catheter, three pigs received an injection of 1-2 mL of polymeric paste into the kidney pelvis. After removal of the ureteral catheter, a urinary catheter was placed and urine collected for 3 h intervals over 24 h. Blood was collected from an ear vein over 24 h and gemcitabine concentrations were determined using ultra high performance liquid chromatography tandem mass spectrometry (UHPLC-MS/MS).
The drug gemcitabine was incorporated at 5% (m/m) in the sodium hyaluronate containing paste. This paste was injected through the 5 F catheter into the kidney pelvis of a pig.

[5] = PEG:PLGA:Diblock 50:37:13, lidocaine 8%, cephalexin 2%, ibuprofen 5%, FIG. 18
[6] = PEG:PLGA:Diblock 50:37:13, lidocaine 10%, desoximetasone 1%, FIG. 14
[7] = PEG:PLGA:Diblock 50:37:13, Tamsulosin 2% w/w, FIG. 17
[8] = PEG:PLGA 50:50 paste, docetaxel 4%, bicalutamide 4%, VPC-27 10%, FIG. 3A
[9] = PEG:PLGA:Diblock 50:37:13, docetaxel 0.25%, bicalutamide 4%, VPC-27 4%, FIG. 5
[10] = high diblock concentration (PEG:PLGA:Diblock 50:25:25), docetaxel 0.5%, FIG. 6D
[11] = low diblock concentration (PEG:PLGA:Diblock 50:43:7), docetaxel 0.5%, FIG. 6A

drug released by day 35 [2, 6]: 100%
drug released, burst within the first day [2, 6]: 50%
SMILES: C[C@@H]1C[C@H]2[C@@H]3CCC4=CC(=O)C=C[C@]4(C)[C@@]3(F)[C@@H](O)C[C@]2(C)[C@H]1C(=O)CO [desoximetasone]

Serum gemcitabine levels ([4]; FIG. 25B): very low, but detectable in all pigs
SMILES: Nc1ccn([C@@H]2O[C@H](CO)[C@@H](O)C2(F)F)c(=O)n1 [gemcitabine]
blockage of the ureter [4]: did not result in any blockage of the ureter
Gemcitabine levels in urine ([4]; FIG. 25A): initially high and levelled off after 5-7 hours

The next lines start with the molecule.

SMILES: CCN(CC)CC(=O)Nc1c(C)cccc1C [lidocaine]
duration [1]: 60 to 120 min
onset [1]: 3 min
drug released by day 7 ([2]; PEG:PLGA:Diblock 50:37:13, crescent shape): 88%
drug released by day 7 ([2]; PEG:PLGA:Diblock 50:37:13, cylinder shape): 92%
drug released by day 7 ([2]; PEG:PLGA:Diblock 50:37:13, hemisphere shape): approximately 65%
drug released by day 35 [2, 5]: approximately 70%
drug released, burst release by day one [2, 5]: 54%
drug released by day 35 [2, 6]: 80%
drug released, burst within the first day [2, 6]: 50%
drug released by day 18 ([2]; all PEG:PLGA pastes without diblock (50:50, 55:45, 60:40), 8% lidocaine, FIG. 15): 100%
maximum serum concentration ([3]; 80 mg/g paste (PEG 300:PLGA 50:50), 23 mg/kg): 557.26 ± 81.15 ng/mL
maximum serum concentration ([3]; 100 mg/g paste (PEG 300:PLGA 50:50), 29 mg/kg): 578.90 ± 162.59 ng/mL
maximum serum concentration ([3]; 120 mg/g paste (PEG 300:PLGA 50:50), 36 mg/kg): 638.03 ± 190.61 ng/mL
maximum serum concentration ([3]; 140 mg/g paste (PEG 300:PLGA 50:50), 40 mg/kg): 855.98 ± 196.18 ng/mL
maximum serum concentration ([3]; 160 mg/g paste (PEG 300:PLGA 50:50), 45 mg/kg): 1148.88 ± 838.97 ng/mL
maximum concentrations detected in serum in each group ([3]; all studied strengths, below upper limit of therapeutic range): < 5000 ng/mL

SMILES: CCOc1ccccc1OCCN[C@H](C)Cc1ccc(OC)c(S(N)(=O)=O)c1 [Tamsulosin]
drug released by day 6 [2, 7]: 70%
drug released on day 21 [2, 7]: 80%
drug released, burst phase on day 1 [2, 7]: 47%

SMILES: CC(=O)O[C@@]12CO[C@@H]1C[C@H](O)[C@@]1(C)C(=O)[C@H](O)C3=C(C)[C@@H](OC(=O)[C@H](O)[C@@H](NC(=O)OC(C)(C)C)c4ccccc4)C[C@@](O)([C@@H](OC(=O)c4ccccc4)[C@H]21)C3(C)C [docetaxel]
drug released, fast burst over 5 days [2, 8]: 10%
further encapsulated drug released over the next 40 days [2, 8]: 20%
drug release on day 18 ([2]; PEG:PLGA 55:45 paste without diblock, docetaxel 1%, bicalutamide 4%, VPC-27 4%, FIG. 8): around 10%
drug released by day 50 [2]: approximately 50%
drug released after one day [2, 9]: 24%
drug released on day 35 [2, 9]: 32%
drug release at day 8 ([2]; PEG:PLGA:Diblock 50:37:13, docetaxel 1%, rapamycin 1%, VPC-27 4%, FIG. 9): ~45%
drug released on day 21 [2, 10]: 78%
drug released, burst on day 1 [2, 10]: 67%
drug released on day 21 [2, 11]: 34%
drug released, burst on day 1 [2, 11]: 20%

SMILES: CC(C)Cc1ccc(C(C)C(=O)O)cc1 (stereo not shown) [Ibuprofen]
drug released by day 35 [2, 5]: approximately 70%
drug released, burst release by day one [2, 5]: 54%

SMILES: CNC(=O)c1ccc(N2C(=S)N(c3ccc(C#N)c(C(F)(F)F)c3)C(=O)C2(C)C)cc1F [enzalutamide]
drug released by day 50 [2]: approximately 40%

SMILES: CC1=C(C(=O)O)N2C(=O)[C@@H](NC(=O)[C@H](N)c3ccccc3)[C@H]2SC1 [Cephalexin]
drug release at 1 day ([2]; PEG:PLGA:Diblock 50:37:13, cephalexin between 2 and 19% loading, PBS without albumin, FIG. 10): almost all drug was released
drug released, maximum on day 3 [2, 5]: 80%
